According to patent publication US9540352B2, “Substituted 1,7-naphthyridines as dopamine D1 ligands” (PFIZER INC., priority 2014, dated 2017):

Target: Human D1 Receptor (Homo sapiens (Human), UniProt P21728)
Test: Human D1 receptor binding assay ([3H]-SCH23390 competition)
Conditions: over-expressing LTK human cell lines; 0.5 nM [3H]-SCH23390; 30 min at 37 °C; footnote a: geometric mean of ≥5 determinations; footnote b: single determination; read-out: Human D1 Receptor Binding, Ki (nM); Geometric mean of 2-4 determinations (unless otherwise indicated)
Description: The affinity of the compounds described herein was determined by competition binding assays similar to those described in Ryman-Rasmussen et al., “Differential activation of adenylate cyclase and receptor internalization by novel dopamine D1 receptor agonists”, Molecular Pharmacology 68(4):1039-1048 (2005).
D1 binding assays were performed using over-expressing LTK human cell lines. […] These ligand and tissue concentrations were used in time course studies to determine linearity and equilibrium conditions for binding. Binding was at equilibrium with the specified amount of tissue in 30 minutes at 37° C. […] The pellet was resuspended in assay buffer [50 mM Tris (pH 7.4@ RT) containing 4 mM MgSO4 and 0.5 mM EDTA]. […] Non-specific binding was determined by radioligand binding in the presence of a saturating concentration of (+)-Butaclamol (10 μM), a D1 antagonist. After a 30 minute incubation period at 37° C., assay samples were rapidly filtered through Unifilter-96 GF/B PEI-coated filter plates and rinsed with 50 mM Tris buffer (pH 7.4 at 4° C.). […] The IC50 value (concentration at which 50% inhibition of specific binding occurs) was calculated by linear regression of the concentration-response data in Microsoft Excel. Ki values were calculated according to the Cheng-Prusoff equation: […]

Human D1 Receptor, sequence (P21728 whole entry): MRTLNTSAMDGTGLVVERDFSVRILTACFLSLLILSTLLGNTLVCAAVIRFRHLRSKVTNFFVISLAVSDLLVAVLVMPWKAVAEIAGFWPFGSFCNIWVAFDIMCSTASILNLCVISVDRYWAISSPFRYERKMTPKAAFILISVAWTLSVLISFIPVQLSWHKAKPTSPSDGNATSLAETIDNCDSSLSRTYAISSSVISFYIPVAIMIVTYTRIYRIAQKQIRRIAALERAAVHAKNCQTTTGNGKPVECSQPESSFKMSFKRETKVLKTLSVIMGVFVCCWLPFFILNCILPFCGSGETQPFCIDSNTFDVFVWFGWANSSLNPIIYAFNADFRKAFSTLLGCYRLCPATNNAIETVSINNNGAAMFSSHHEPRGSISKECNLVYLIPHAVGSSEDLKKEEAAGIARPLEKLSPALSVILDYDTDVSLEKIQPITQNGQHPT

Ki	Structure (SMILES)
115 nM	Cc1cc(Oc2nccc3cccnc23)ccc1-c1c(C)n[nH]c(=O)c1C (single isomer, unassigned) [Example 2, (+)-4,6-Dimethyl-5-[2-methyl-4-(1,7-naphthyridin-8-yloxy)phenyl]pyridazin-3(2H)-one]
102 nM	Cc1cc(Oc2nccc3cccnc23)ccc1-c1c(C)n[nH]c(=O)c1C (single isomer, unassigned) [Example 3, (−)-4,6-Dimethyl-5-[2-methyl-4-(1,7-naphthyridin-8-yloxy)phenyl]pyridazin-3(2H)-one]
28.5 nM	Cc1cc(Oc2nccc3cccnc23)ccc1-c1c(C)c(=O)[nH]c(=O)n1C [Example 1, 1,5-Dimethyl-6-[2-methyl-4-(1,7-naphthyridin-8-yloxy)phenyl]pyrimidine-2,4(1H,3H)-dione]
205 nM	Cc1n[nH]c(=O)c(C)c1-c1ccc(Oc2nccc3cccnc23)cc1 [Example 4, 4,6-Dimethyl-5-[4-(1,7-naphthyridin-8-yloxy)phenyl]pyridazin-3(2H)-one]
1.9 nM	Cc1cc(Oc2nccc3ccccc23)ccc1-c1c(C)c(=O)[nH]c(=O)n1C [Example 5, 6-[4-(Isoquinolin-1-yloxy)-2-methylphenyl]-1,5-dimethylpyrimidine-2,4(1H,3H)-dione]
105 nM	Cc1cc(Oc2nccc3cccnc23)ccc1-c1c(C)ncnc1C [Example 6, 8-[4-(4,6-dimethylpyrimidin-5-yl)-3-methylphenoxy]-1,7-naphthyridine]
119 nM	Cc1c(-c2ccc(Oc3nccc4cccnc34)cc2)n(C)c(=O)[nH]c1=O [Example 7, 1,5-dimethyl-6-[4-(1,7-naphthyridin-8-yloxy)phenyl]pyrimidine-2,4(1H,3H)-dione]
141 nM	Cc1cc(Oc2nccc3ccncc23)ccc1-c1c(C)n[nH]c(=O)c1C [Example 8, 4,6-dimethyl-5-[2-methyl-4-(2,7-naphthyridin-1-yloxy)phenyl]pyridazin-3(2H)-one]
306 nM	Cc1cc(Oc2nccc3nccnc23)ccc1-c1c(C)n[nH]c(=O)c1C [Example 9, 4,6-dimethyl-5-[2-methyl-4-(pyrido[3,4-b]pyrazin-5-yloxy)phenyl]pyridazin-3(2H)-one]
124 nM	Cc1cc(Oc2nccc3ncccc23)ccc1-c1c(C)n[nH]c(=O)c1C [Example 10, 4,6-dimethyl-5-[2-methyl-4-(1,6-naphthyridin-5-yloxy)phenyl]pyridazin-3(2H)-one]
7.8 nM	Cc1cc(Oc2nccc3ccccc23)ccc1-c1c(C)n[nH]c(=O)c1C [Example 11, 5-[4-(isoquinolin-1-yloxy)-2-methylphenyl]-4,6-dimethylpyridazin-3(2H)-one]
186 nM	COc1ccc2ccnc(Oc3ccc(-c4c(C)n[nH]c(=O)c4C)c(C)c3)c2c1 [Example 12, 5-{4-[(7-methoxyisoquinolin-1-yl)oxy]-2-methylphenyl}-4,6-dimethylpyridazin-3(2H)-one]
334 nM	Cc1cc(Oc2nccc3ccc(C#N)cc23)ccc1-c1c(C)n[nH]c(=O)c1C [Example 13, 1-[4-(3,5-dimethyl-6-oxo-1,6-dihydropyridazin-4-yl)-3-methylphenoxy]isoquinoline-7-carbonitrile]
261 nM	Cc1cc(Oc2nccc3cccc(C#N)c23)ccc1-c1c(C)n[nH]c(=O)c1C [Example 14, 1-[4-(3,5-dimethyl-6-oxo-1,6-dihydropyridazin-4-yl)-3-methylphenoxy]isoquinoline-8-carbonitrile]
